pKi: −log10 of the molar value.
Experiments:
FKBP12 = FKBP12 (Homo sapiens, UniProt P62942); assay: Ki test procedure: inhibition of peptidyl-prolyl isomerase (rotamase) activity, chymotrypsin-coupled assay; type: biochemical; details: FKBP rotamase, substrate N-succinyl-Ala-Ala-Pro-Phe-p-nitroanilide; read-out: Ki (apparent Ki, rotamase inhibition)
Description: The inhibition of the prolyl peptidyl cis-trans isomerase activity of FKBP may be measured as an indicator of this affinity.
Inhibition of the peptidyl-prolyl isomerase (rotamase) activity of the compounds used in the inventive methods and pharmaceutical compositions can be evaluated by known methods described in the literature (Harding et al., Nature, 1989, 341:758-760; Holt et al. J. Am. Chem. Soc., 115:9923-9938).
The cis-trans isomerization of an alanine-proline bond in a model substrate, N-succinyl-Ala—Ala—Pro—Phe- p-nitroanilide, is monitored spectrophotometrically in a chymotrypsin-coupled assay, which releases para-nitroanilide from the trans form of the substrate. The inhibition of this reaction caused by the addition of different concentrations of inhibitor is determined, and the data is analyzed as a change in first-order rate constant as a function of inhibitor concentration to yield the apparent Ki values.
In a plastic cuvette are added […] of ice cold assay buffer (25 mM HEPES, pH 7.8, 100 mM NaCl), […] of FKBP (2.5 mM in 10 mM Tris-Cl pH 7.5, 100 mM NaCl, 1 mM dithiothreitol), […] of chymotrypsin (50 mg/ml in 1 mM HCl) and […] of test compound at various concentrations in dimethyl sulfoxide. The reaction is initiated by the addition of 5 mL of substrate (succinyl-Ala—Phe—Pro—Phe-para-nitroanilide, 5 mg/mL in 2.35 mM LiCl in trifluoroethanol).
The absorbance at 390 nm versus time is monitored for 90 seconds using a spectrophotometer and the rate constants are determined from the absorbance versus time data files.

hair growth = details: topical, but not oral, application; cited from earlier work

Sequence of FKBP12 (P62942 whole entry, species assumed): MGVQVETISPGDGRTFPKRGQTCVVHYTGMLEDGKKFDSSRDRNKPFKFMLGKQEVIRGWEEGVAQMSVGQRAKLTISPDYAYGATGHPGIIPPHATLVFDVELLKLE

Structure (SMILES): O=C(C(=O)N1CCCCC1C(=O)OCc1ccccc1)c1ccccc1 (centres unmarked) [Compound 10]
- pKi (FKBP12): 5.82

Structure (SMILES): O=C(C(=O)N1CCCCC1C(=O)OCCCCc1ccccc1)c1ccccc1 (centres unmarked) [Compound 13]
- pKi (FKBP12): 6.46

Structure (SMILES): O=C(C(=O)N1CCCCC1C(=O)OCCc1ccccc1)c1ccccc1 (centres unmarked) [Compound 14]
- pKi (FKBP12): 5.96

Structure (SMILES): O=C(C(=O)N1CCCCC1C(=O)OCCCCC1CCCCC1)c1ccccc1 (centres unmarked) [Compound 15]
- pKi (FKBP12): 6.40

Structure (SMILES): COC(=O)C(=O)N1CCCCC1C(=O)OCc1ccccc1 (centres unmarked) [Compound 16]
- pKi (FKBP12): 4.10

Structure (SMILES): O=C(C(=O)N1CCCCC1C(=O)OCc1ccccc1)c1ccco1 (centres unmarked) [Compound 20]
- pKi (FKBP12): 5.52

Structure (SMILES): COc1cc(C(=O)C(=O)N2CCCCC2C(=O)OCCCCc2ccccc2)cc(OC)c1OC (centres unmarked) [Compound 23]
- pKi (FKBP12): 7.72

Structure (SMILES): C=CC[C@@H]1/C=C(\C)C[C@H](C)C[C@H](OC)[C@H]2O[C@@](O)(C(=O)C(=O)N3CCCC[C@H]3C(=O)O[C@H](/C(C)=C/[C@@H]3CC[C@@H](O)[C@H](OC)C3)[C@H](C)[C@@H](O)CC1=O)[C@H](C)C[C@@H]2OC [FK506]
- stimulation of hair growth (in words) (hair growth): stimulates hair growth in a dose-dependent manner
